Measured values taken from patent US20180325889A1, “IMMUNOREGULATORY AGENTS” (FLEXUS BIOSCIENCES, INC., priority 2014, published 2018).

Biological target: T1, human IDO1/HEK293 cells (Homo sapiens, UniProt P14902)
T1 construct: expressed in transfected cells
Assay: HEK Human IDO-1 cell-based IDO inhibition assay (kynurenine production)
Settings: HEK293 cells stably expressing human IDO1, 20 hours incubation, absorbance at 490 nm; read-out: HEK Human IDO-1 Bio Activity (IDO IC50)
Description: They were cultured in medium (DMEM with 10% FBS) containing 1 mg/ml G418 for two weeks.
The human IDO1/HEK293 cells were seeded at 10,000 cells per 50 μL per well with RPMI/phenol red free media contains 10% FBS in a 384-well black wall clear bottom tissue culture plate (Matrix Technologies LLC) 100 nL of certain concentration of compound was then added to each well using ECHO liquid handling systems. The cells were incubated for 20 hours in 37° C. incubator with 5% CO2.
The compound treatments were stopped by adding trichloroacetic acid (Sigma-Aldrich) to a final concentration at 0.2%. The cell plate was further incubated at 50° C. for 30 minute. The equal volume supernatant (20 μL) and 0.2% (w/v) Ehrlich reagent (4-dimethylaminobenzaldehyde, Sigma-Aldrich) in glacial acetic acid were mixed in a new clear bottom 384-well plate. This plate was then incubated at room temperature for 30 minute. The absorbance at 490 nm was measured on Envision plate reader.

T1 sequence (P14902 whole entry): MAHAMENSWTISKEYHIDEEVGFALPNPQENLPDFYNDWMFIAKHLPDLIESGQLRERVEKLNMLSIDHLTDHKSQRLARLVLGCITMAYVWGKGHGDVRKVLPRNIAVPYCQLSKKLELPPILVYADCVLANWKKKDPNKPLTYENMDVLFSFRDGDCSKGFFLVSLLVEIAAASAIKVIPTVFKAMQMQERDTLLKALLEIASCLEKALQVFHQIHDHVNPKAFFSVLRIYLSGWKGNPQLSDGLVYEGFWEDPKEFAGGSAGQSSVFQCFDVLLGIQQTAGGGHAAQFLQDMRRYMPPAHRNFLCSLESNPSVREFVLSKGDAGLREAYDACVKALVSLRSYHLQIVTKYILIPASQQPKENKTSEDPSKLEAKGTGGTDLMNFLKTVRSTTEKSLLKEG

CCC(NC(=O)c1ccc(Cl)cc1)C1CCC(c2cccc(C(F)F)n2)CC1 (mixture of isomers) [Example 231a, 4-chloro-N-(1-(4-(6-(difluoromethyl)pyridin-2-yl)cyclohexyl)propyl)benzamide]
IC50: < 250 nM

CCC(NC(=O)c1ccc(Cl)cc1)[C@H]1CC[C@H](Oc2ccnc3ccccc23)CC1 (mixture of isomers) [Example 71, 4-Chloro-N-(1-((trans)-4-(quinolin-4-yloxy)cyclohexyl)propyl)benzamide]
IC50: < 50 nM

CCC(NC(=O)c1ccc(Cl)cc1)[C@H]1CC[C@@H](Oc2ccncc2)CC1 (mixture of isomers) [Example 77a, (±)-4-Chloro-N-(1-((cis)-4-(pyridin-4-yloxy)cyclohexyl)propyl)benzamide]
IC50: < 250 nM

CCC(NC(=O)c1ccc(Cl)cc1)[C@H]1CC[C@@H](Oc2ccnc3ccc(C(F)(F)F)cc23)CC1 (mixture of isomers) [Example 78, (±)-4-Chloro-N-(1-((cis)-4-((6-(trifluoromethyl)quinolin-4-yl)oxy)cyclohexyl)propyl)benzamide]
IC50: < 2000 nM

Cc1nccc(O[C@H]2CC[C@H](C(C)NC(=O)c3ccc(Cl)cc3)CC2)c1Cl (mixture of isomers) [Example 207, rac-4-chloro-N-(1-((trans)-4-((3-chloro-2-methylpyridin-4-yl)oxy)cyclohexyl)ethyl)benzamide]
IC50: < 50 nM

Cc1nccc(OC2CCC(C(C)NC(=O)c3ccc(F)cc3)CC2)c1Cl (racemic) [Example 208]
IC50: < 250 nM

COc1ccc(C(=O)NC(C)C2CCC(Oc3ccnc(C)c3Cl)CC2)cc1 (racemic) [Example 209]
IC50: < 250 nM

Cc1ccc(C(=O)NC(C)C2CCC(Oc3ccnc(C)c3Cl)CC2)cc1 (racemic) [Example 210]
IC50: < 250 nM

CCC(NC(=O)c1ccc(-c2ccccc2)cc1)[C@H]1CC[C@@H](c2ccnc3ccc(C(F)(F)F)cc32)CC1 (mixture of isomers) [Example 230, N-(1-((1s,4s)-4-(6-(trifluoromethyl)quinolin-4-yl)cyclohexyl)propyl)biphenyl-4-carboxamide]
IC50: < 50 nM

Cc1cc(C2CCC(C(C)NC(=O)c3ccc(Cl)cc3)CC2)ccn1 (single isomer, unassigned) [Example 157b, 4-Chloro-N-(1-(4-(2-methylpyridin-4-yl)cyclohexyl)ethyl) Benzamide]
IC50: < 50 nM

Cc1cc(C2CCC(C(C)NC(=O)c3ccc(Cl)cc3)CC2)ccn1 (single isomer, unassigned) [Example 157c, 4-Chloro-N-(1-(4-(2-methylpyridin-4-yl)cyclohexyl)ethyl) Benzamide]
IC50: < 2000 nM

Cc1cc(C2CCC(C(C)NC(=O)c3ccc(Cl)cc3)CC2)ccn1 (single isomer, unassigned) [Example 157d, 4-Chloro-N-(1-(4-(2-methylpyridin-4-yl)cyclohexyl)ethyl) Benzamide]
IC50: < 2000 nM

Cc1cc(C2CCC(C(C)NC(=O)c3ccc(Cl)cc3)CC2)ccn1 (single isomer, unassigned) [Example 157e, 4-Chloro-N-(1-(4-(2-methylpyridin-4-yl)cyclohexyl)ethyl) Benzamide]
IC50: < 2000 nM

CCC(NC(=O)c1ccc(Cl)cc1)C1CCC(c2ccnc3ccc(F)cc23)CC1 (single isomer, unassigned) [Example 164a, 4-Chloro-N-(1-(4-(6-fluoroquinolin-4-yl)cyclohexyl)propyl)benzamide]
IC50: < 250 nM

CCC(NC(=O)c1ccc(Cl)cc1)C1CCC(c2ccnc3ccc(F)cc23)CC1 (single isomer, unassigned) [Example 164b, 4-Chloro-N-(1-(4-(6-fluoroquinolin-4-yl)cyclohexyl)propyl)benzamide]
IC50: < 50 nM

CCC(NC(=O)c1ccc(Cl)cc1)C1CCC(c2ccnc3ccc(F)cc23)CC1 (single isomer, unassigned) [Example 164c, 4-Chloro-N-(1-(4-(6-fluoroquinolin-4-yl)cyclohexyl)propyl)benzamide]
IC50: < 50 nM

CCC(NC(=O)c1ccc(Cl)cc1)C1CCC(c2ccnc3ccc(F)cc23)CC1 (single isomer, unassigned) [Example 164d, 4-Chloro-N-(1-(4-(6-fluoroquinolin-4-yl)cyclohexyl)propyl)benzamide]
IC50: < 50 nM

CCC(NC(=O)c1ccc(C#N)cc1)C1CCC(c2ccnc3ccc(F)cc23)CC1 (single isomer, unassigned) [Example 165a, 4-Cyano-N-(1-(4-(6-fluoroquinolin-4-yl)cyclohexyl)propyl)benzamide]
IC50: < 2000 nM

CCC(NC(=O)c1ccc(C#N)cc1)C1CCC(c2ccnc3ccc(F)cc23)CC1 (single isomer, unassigned) [Example 165b, 4-Cyano-N-(1-(4-(6-fluoroquinolin-4-yl)cyclohexyl)propyl)benzamide]
IC50: < 50 nM

CCC(NC(=O)c1ccc(C#N)cc1)C1CCC(c2ccnc3ccc(F)cc23)CC1 (single isomer, unassigned) [Example 165c, 4-Cyano-N-(1-(4-(6-fluoroquinolin-4-yl)cyclohexyl)propyl)benzamide]
IC50: < 50 nM

CCC(NC(=O)c1ccc(C#N)cc1)C1CCC(c2ccnc3ccc(F)cc23)CC1 (single isomer, unassigned) [Example 165d, 4-Cyano-N-(1-(4-(6-fluoroquinolin-4-yl)cyclohexyl)propyl)benzamide]
IC50: < 50 nM

CC[C@@H](NC(=O)c1ccc(Cl)cc1)[C@H]1CC[C@@H](c2cnc3ccccc3c2)CC1 (single isomer, unassigned) [Example 203a]
IC50: < 2000 nM

CC[C@H](NC(=O)c1ccc(Cl)cc1)[C@H]1CC[C@@H](c2cnc3ccccc3c2)CC1 (single isomer, unassigned) [Example 203b]
IC50: < 250 nM

CC[C@@H](NC(=O)c1ccc(Cl)cc1)[C@H]1CC[C@H](c2cnc3ccccc3c2)CC1 (single isomer, unassigned) [Example 203c]
IC50: < 50 nM

CC[C@H](NC(=O)c1ccc(Cl)cc1)[C@H]1CC[C@H](c2cnc3ccccc3c2)CC1 (single isomer, unassigned) [Example 203d]
IC50: < 50 nM

CC(NC(=O)c1ccc(Cl)cc1)C1CCC(c2ccnc(C(F)(F)F)c2)CC1 (single isomer, unassigned) [Example 212, 4-chloro-N-(1-(4-(2-(trifluoromcthyl)pyridin-4-yl)cyclohexyl)ethyl)benzamide]
IC50: < 2000 nM

CC(NC(=O)c1ccc(Cl)cc1)C1CCC(c2ccnc(C(F)(F)F)c2)CC1 (single isomer, unassigned) [Example 213, 4-chloro-N-(1-(4-(2-(trifluoromethyl)pyridin-4-yl)cyclohexyl)ethyl)benzamide]
IC50: < 50 nM

CC(NC(=O)c1ccc(Cl)cc1)C1CCC(c2ccnc(C(F)(F)F)c2)CC1 (single isomer, unassigned) [Example 214, 4-chloro-N-(1-(4-(2-(trifluorornethyl)pyridin-4-yl)cyclohexyl)ethyl)benzamide]
IC50: < 250 nM

CC(NC(=O)c1ccc(Cl)cc1)C1CCC(c2ccnc(C(F)(F)F)c2)CC1 (single isomer, unassigned) [Example 215, 4-chloro-N-(1-(4-(2-(trifluoromcthyl)pyridin-4-yl)cyclohcxyl)ethyl)benzamide]
IC50: < 2000 nM

CC(NC(=O)c1ccc(Cl)cc1)C1CCC(c2ccc(C(F)(F)F)nc2)CC1 (single isomer, unassigned) [Example 217, 4-chloro-N-(1-(4-(6-(trifluoromethyl)pyridin-3-yl)cyclohexyl)ethyl)benzamide]
IC50: < 2000 nM
